From ChEMBL document CHEMBL4425099, “Use of Osmotic Pumps to Establish the Pharmacokinetic-Pharmacodynamic Relationship and Define Desirable Human Performance Characteristics for Aggrecanase Inhibitors” (J Med Chem, 2016)
Values after ≈ are worked out from the molar mass of the structure shown. One block for each compound: values may come before it.

Key:
[1] = Ratio of plasma concentration in Lewis rat model of MIA at 6 mg/mL, […] post 3 days MIA induction to IC50 for human ADAMTS5 in presence of rat plasma; format: ADME, organism-based; settings: in vivo, 72 h
[2] = Plasma concentration in Lewis rat model of MIA at […], po administered through infusion pump post 3 days MIA induction; format: ADME, organism-based
[3] = system: Rattus norvegicus; assay: Reduction in ADAMTS-4/ADAMTS-5 mediated aggrecan cleavage products in Lewis rat model of MIA assessed as aggrecanase-cleaved fragments at […] administered through infusion pump post 3 days MIA induction measured after 4 hrs of last dosage on day 7 by NITEGE sandwich ELISA; format: functional
[4] = Ratio of plasma concentration in Lewis rat model of MIA at […], […] administered through infusion pump post 3 days MIA induction to IC50 for human ADAMTS5 in presence of rat plasma; format: ADME, organism-based; settings: in vivo, 72 h
[5] = system: Rattus norvegicus; assay: Reduction in ADAMTS-4/ADAMTS-5 mediated aggrecan cleavage products in Lewis rat model of MIA assessed as aggrecanase-cleaved fragments at 30 mg/kg, po qd administered post 3 days MIA induction measured after 4 hrs of last dosage on day 7 by NITEGE sandwich ELISA; format: functional
[6] = Ratio of plasma concentration in Lewis rat model of MIA at 60 mg/mL, […] post 3 days MIA induction to IC50 for human ADAMTS5 in presence of rat plasma; format: ADME, organism-based; settings: in vivo, 72 h
[7] = Solubility of the compound at pH 2; format: physicochemical; settings: buffer
[8] = Ratio of plasma concentration in Lewis rat model of MIA at 45 mg/kg, po qd administered post 3 days MIA induction measured after 4 hrs of last dosage on day 7 to IC50 for human ADAMTS5 in presence of Lewis rat plasma; format: ADME, organism-based; settings: in vivo
[9] = system: Rattus norvegicus; assay: Reduction in ADAMTS-4/ADAMTS-5 mediated aggrecan cleavage products in Lewis rat model of MIA assessed as aggrecanase-cleaved fragments at 6 mg/mL administered through infusion pump post 3 days MIA induction measured after 4 hrs of last dosage on day 7 by NITEGE sandwich ELISA; format: functional
[10] = Plasma concentration in Lewis rat model of MIA at 18 mg/mL, […] post 3 days MIA induction; format: ADME, organism-based
[11] = Ratio of plasma concentration in Lewis rat model of MIA at 18 mg/mL, […] post 3 days MIA induction to IC50 for human ADAMTS5 in presence of rat plasma; format: ADME, organism-based; settings: in vivo, 72 h
[12] = system: Rattus norvegicus; assay: Reduction in ADAMTS-4/ADAMTS-5 mediated aggrecan cleavage products in Lewis rat model of MIA assessed as aggrecanase-cleaved fragments at 1.44 mg/mL, sc administered through infusion pump post 3 days MIA induction measured after 4 hrs of last dosage on day 7 by NITEGE sandwich ELISA; format: functional
[13] = Dissociation constant, basic pKa of the compound; format: physicochemical
[14] = Plasma concentration in Lewis rat model of MIA at 1.44 mg/mL, sc administered through infusion pump post 3 days MIA induction; format: ADME, organism-based
[15] = Plasma concentration in Lewis rat model of MIA at 4.3 mg/mL, sc administered through infusion pump post 3 days MIA induction; format: ADME, organism-based
[16] = Ratio of plasma concentration in Lewis rat model of MIA at 30 mg/kg, po bid administered post 3 days MIA induction measured after 1 hr of last dosage on day 7 to IC50 for human ADAMTS5 in presence of Lewis rat plasma; format: ADME, organism-based; settings: in vivo
[17] = Ratio of plasma concentration in Lewis rat model of MIA at 1.44 mg/mL, sc administered through infusion pump post 3 days MIA induction to IC50 for human ADAMTS5 in presence of rat plasma; format: ADME, organism-based; settings: in vivo, 72 h
[18] = Tmax in Lewis rat plasma at 30 mg/kg, po; format: ADME, organism-based
[19] = Ratio of plasma concentration in Lewis rat model of MIA at 30 mg/kg, po bid administered post 3 days MIA induction measured after 12 hrs of last dosage on day 7 to IC50 for human ADAMTS5 in presence of Lewis rat plasma; format: ADME, organism-based; settings: in vivo
[20] = Plasma concentration in Lewis rat model of MIA at 10 mg/mL, sc administered through infusion pump post 3 days MIA induction; format: ADME, organism-based
[21] = Plasma concentration in Lewis rat model of MIA at 30 mg/mL, sc administered through infusion pump post 3 days MIA induction; format: ADME, organism-based
[22] = Ratio of plasma concentration in Lewis rat model of MIA at 4.3 mg/mL, sc administered through infusion pump post 3 days MIA induction to IC50 for human ADAMTS5 in presence of rat plasma; format: ADME, organism-based; settings: in vivo, 72 h

Ratio [1]: 10
concentration at 72 h [2]: 200 nM
Ratio [4]: 3.2
Ratio [6]: 46
solubility [7]: 12 µg/mL (≈ 31.5 µM)
Ratio [8]: 10
concentration at 72 h [10]: 2200 nM
Ratio [11]: 35
SMILES: O=C1NC(=O)[C@](CNC(=O)c2cc3cc(C(F)(F)F)ccc3o2)(C2CC2)N1
inhibition (INH) [3]: 21%
inhibition in vivo at 30 mg/kg [5]: 52%
inhibition (INH) [9]: 44%

pKa [13]: 3.67
concentration at 72 h [14]: 130 nM
concentration at 72 h [15]: 360 nM
Ratio [16]: 2000
Ratio [17]: 3.7
Tmax [18]: 1 h
Ratio [19]: 10
concentration at 72 h [20]: 1100 nM
concentration at 72 h [21]: 3600 nM
Ratio [22]: 10
SMILES: Cn1ccnc1[C@]1(CNC(=O)c2cc3cc(C(F)(F)F)ccc3o2)NC(=O)NC1=O
inhibition (INH) [12]: 16%
